Source: patent US20230165867A1 (CHENGDU BAIYU PHARMACEUTICAL CO., LTD., priority 2020, published 2023)
Where two headings read alike, the source gives them in different places.

Assays:
[1] = Pharmacokinetic assay in ICR mice (i.v. and p.o.); assay type: in vivo; settings: mouse, plasma, male ICR mice; for half-life: read-out: T½ (converted); for bioavailability: po 10 mg/kg vs iv 1 mg/kg
How it was run: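 Fasted male ICR mice (18-22 g) dosed at 1 mg/kg i.v. or 10 mg/kg p.o. in 5% DMSO/95% 30% HP-β-CD, three mice per time point. Submandibular plasma sampled up to 24 h, assayed by LC/MS/MS.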

TTK kinase = target: T1, TTK kinase (Homo sapiens, UniProt P33981); test: TTK kinase activity assay (ADP-Glo); assay type: biochemical; settings: initial concentration 1000 nM, 1:3, 10 dilutions; read-out: IC50 (nM), TTK kinase inhibiting activity
T1 construct: purchased Invitrogen PV3792
T1 sequence (P33981 1-857): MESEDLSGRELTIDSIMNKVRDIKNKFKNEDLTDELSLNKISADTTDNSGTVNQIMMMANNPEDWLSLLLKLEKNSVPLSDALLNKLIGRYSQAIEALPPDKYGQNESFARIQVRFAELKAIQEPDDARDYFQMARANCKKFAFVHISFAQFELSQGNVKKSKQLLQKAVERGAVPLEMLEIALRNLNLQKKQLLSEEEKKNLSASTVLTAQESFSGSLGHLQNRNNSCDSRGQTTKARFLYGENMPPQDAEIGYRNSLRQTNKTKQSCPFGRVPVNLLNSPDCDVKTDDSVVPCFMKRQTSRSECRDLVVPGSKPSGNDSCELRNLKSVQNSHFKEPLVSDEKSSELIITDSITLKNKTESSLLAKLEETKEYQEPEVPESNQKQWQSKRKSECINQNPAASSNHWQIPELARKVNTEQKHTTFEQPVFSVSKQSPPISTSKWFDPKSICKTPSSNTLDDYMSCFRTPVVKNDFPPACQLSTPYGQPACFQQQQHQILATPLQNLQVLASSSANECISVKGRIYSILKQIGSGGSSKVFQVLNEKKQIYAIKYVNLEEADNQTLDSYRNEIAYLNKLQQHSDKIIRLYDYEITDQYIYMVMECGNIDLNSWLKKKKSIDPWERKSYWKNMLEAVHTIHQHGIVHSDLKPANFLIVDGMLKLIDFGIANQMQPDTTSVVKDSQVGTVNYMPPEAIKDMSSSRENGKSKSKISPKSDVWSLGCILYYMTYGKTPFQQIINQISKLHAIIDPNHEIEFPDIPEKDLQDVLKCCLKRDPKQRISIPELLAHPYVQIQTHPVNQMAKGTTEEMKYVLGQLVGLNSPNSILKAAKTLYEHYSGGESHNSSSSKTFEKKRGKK
Protocol: TTK kinase was purchased from Invitrogen, Cat.#: PV3792.
• (1) 1×buffer was prepared by diluting 5×buffer into 1×buffer with ddH2O, and adding 0.05 mM DTT. • (2) The compounds of the present invention were prepared at an initial concentration of 1000 nM, and diluted by 1:3 to obtain 10 serial dilutions. • (3) The diluted compounds of the present invention were added to a 384-well plate (purchased from Greiner, product number 784075) by an Echo 550 pipetting workstation, and centrifuged at 1000 g for 1 min. • (3) A 2×TTK enzyme solution was prepared with the 1×buffer. Then, 2.5 µL of the 2× enzyme solution was added to each well, centrifuged at 1000 g for 30 s, and left at room temperature for 10 min. • (4) A 2×MBP substrate/ATP mixture was prepared with the 1×buffer.

[2] = Metabolic stability in liver microsomes; assay type: in vitro ADME, human; settings: human, human liver microsomes; 0.5 µM test substance, 0.5 mg/mL microsomes, NADPH and UDPGA, 37° C.; read-out: T½(min), stability in human liver microsomes
Protocol: Liver microsomes (purchased from Reed Liver Disease Research (Shanghai) Co., Ltd., product: human liver microsomes (NJT)); NADPH (purchased from Roche, Lot: 40939); UDPGA; the compounds of the present invention (test substances).
• (1) A mixed working solution of testosterone (0.5 µM) and 7-hydroxycoumarin (0.5 µM) was prepared. • (2) A mixed solution of NADPH (1 mM) and UDPGA (1 mM) was prepared, and prewarmed at 37° C. in a water bath shaker before use. • (3) Liver microsomes were thawed and diluted with a buffer. • (4) A preparation of a test substance (0.5 µM) and a solution of liver microsomes (0.5 mg/mL) were added to each well of an incubation plate. • (5) Three experimental groups were set and samples were added. Test group: the test substance was incubated with liver microsomes for 0 min, 30 min, 60 min, and 120 min in the presence of the coenzyme NADPH and UDPGA; Positive control group: testosterone (0.5 µM) and 7-hydroxycoumarin (0.5 µM) were incubated with microsomes for 0 min and 120 min in the presence of the coenzyme NADPH and UDPGA; Negative control group: the test substance was incubated with microsomes for 0 and 120 min without any coenzyme. • (6) All samples were incubated at 37° C., and pre-cooled methanol was added at each termination time (0, 15, 30, 45, 60 min, 120 min) to terminate the reaction, and the time was recorded. • (7) All samples were mixed well and centrifuged at 4000 rpm for 10 min. The supernatant was taken and measured by LC-MS/MS for the amount of the test substance remaining in the samples. Data analysis was carried out as follows: T½=0.693 /k, Clint = (0.693/T½) × (1 /(microsomal protein) × Scaling Factors), Note: k is the slope of the logarithm of the remaining amounts of compound versus time.

DNA-PK kinase = target: T2, DNA-PK kinase (Homo sapiens, UniProt P78527); test: Inhibition assay of DNA-PK kinase (Promega kit, ADP-Glo chemiluminescence); assay type: biochemical; settings: 50 µM ATP, 37° C., 60 min; read-out: IC50 (nM), inhibitory activity on DNA-PK kinase
T2 construct: purchased Promega V4107
How it was run: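 Compounds incubated with DNA-PK at 37° C for 60 min; reaction stopped with ADP-Glo reagent (40 min, RT), then kinase detection reagent (30 min, RT). ADP formed read by luminescence against an ADP standard curve.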

Row | SMILES | AUC ([1]; iv, 1 mg/kg) [ng·h/mL] | half-life ([1]; iv, 1 mg/kg) [h] | bioavailability [1] [%] | AUC ([1]; po, 10 mg/kg) [ng·h/mL] | Cmax ([1]; po, 10 mg/kg) [ng/mL] | half-life ([1]; po, 10 mg/kg) [h] | IC50 (TTK kinase) [nM] | half-life at 0.5 µM [2] [min] | IC50 (DNA-PK kinase) [nM]
1 | Cc1cc(C#N)ccc1Nc1ncc2c(n1)n(C1CCOCC1)c(=O)n2C [Compound 5, 3-Methyl-4-((7-methyl-8-oxo-9-(tetrahydro-2H-pyran-4-yl)-8,9-dihydro-7H-purin-2-yl)amino)benzonitrile] | 234 | 0.333 | 99.4 | 2270 | 835 | 3.21 | 1720 | > 120 | –
2 | Cc1cc(C(N)=O)ncc1Nc1ncc2c(n1)n(C1CCOCC1)c(=O)n2C [Compound 18, 4-Methyl-5-((7-methyl-8-oxo-9-(tetrahydro-2H-pyran-4-yl)-8,9-dihydro-7H-purin-2-yl)amino)picolinamide] | 171 | 0.771 | 78.4 | 1360 | 312 | 3.06 | 387 | > 120 | 2.1
3 | Cc1cc(C(N)=O)ccc1Nc1ncc2c(n1)n(C1CCOCC1)c(=O)n2C [Compound 2, 3-Methyl-4-((7-methyl-8-oxo-9-(tetrahydro-2H-pyran-4-yl)-8,9-dihydro-7H-purin-2-yl)amino)benzamide] | 265 | 0.87 | 38.2 | 1040 | 449 | 1.84 | 275 | > 120 | –

Next, values leading:

Row | AUC ([1]; iv, 1 mg/kg) [ng·h/mL] | half-life ([1]; iv, 1 mg/kg) [h] | bioavailability [1] [%] | AUC ([1]; po, 10 mg/kg) [ng·h/mL] | Cmax ([1]; po, 10 mg/kg) [ng/mL] | half-life ([1]; po, 10 mg/kg) [h] | IC50 (TTK kinase) [nM] | half-life at 0.5 µM [2] [min] | IC50 (DNA-PK kinase) [nM] | SMILES
4 | 679 | 1.48 | 213 | 14600 | 5450 | 2.17 | 428 | > 120 | 4.36 | CNC(=O)c1ccc(Nc2ncc3c(n2)n(C2CCOCC2)c(=O)n3C)c(C)c1 [Compound 27, N,3-Dimethyl-4-((7-methyl-8-oxo-9-(tetrahydro-2H-pyran-4-yl)-8,9-dihydro-7H-purin-2-yl)amino)benzamide]
5 | 466 | 0.95 | 135 | 6280 | 2500 | 3.73 | 4220 | > 120 | 0.56 | Cc1cc(C(N)=O)c(F)cc1Nc1ncc2c(n1)n(C1CCOCC1)c(=O)n2C [Compound 24, 2-Fluoro-5-methyl-4-((7-methyl-8-oxo-9-(tetrahydro-2H-pyran-4-yl)-8,9-dihydro-7H-purin-2-yl)amino)benzamide]
